Source: ChEMBL document CHEMBL3525901 (Drug Metab Dispos, 2012)

Columns and labels:
Assay type in all cases: ADME, organism-based
[1] = AUC (0 to infinity) in Wistar rat extracellular fluid at 10 mg/kg, sc by HPLC-MS/MS analysis; set-up: time infinity, dose 10 mg/kg, route subcutaneous
[2] = Cmax in Wistar rat extracellular fluid at 10 mg/kg, sc by HPLC-MS/MS analysis; set-up: dose 10 mg/kg, route subcutaneous
[3] = Tmax in Wistar rat extracellular fluid at 10 mg/kg, sc by HPLC-MS/MS analysis; set-up: dose 10 mg/kg, route subcutaneous
Rattus norvegicus [4] = test: Central volume of distribution in Wistar rat extracellular fluid at 10 mg/kg, sc by HPLC-MS/MS analysis; set-up: dose 10 mg/kg, route subcutaneous; conditions: in vivo
[5] = Fraction unbound in Wistar rat plasma at 10 mg/kg, sc by HPLC-MS/MS analysis; set-up: dose 10 mg/kg, route subcutaneous
Plasma [6] = test: Unbound AUC (0 to infinity) in Wistar rat plasma at 10 mg/kg, sc by HPLC-MS/MS analysis; set-up: dose 10 mg/kg, route subcutaneous; conditions: in vivo
Plasma [7] = test: Unbound Cmax in Wistar rat plasma at 10 mg/kg, sc by HPLC-MS/MS analysis; set-up: dose 10 mg/kg, route subcutaneous; conditions: in vivo
[8] = Unbound Tmax in Wistar rat plasma at 10 mg/kg, sc by HPLC-MS/MS analysis; set-up: dose 10 mg/kg, route subcutaneous; conditions: read-out: fTmax (converted)
[9] = Systemic clearance in Wistar rat extracellular fluid at 10 mg/kg, sc by HPLC-MS/MS analysis; set-up: dose 10 mg/kg, route subcutaneous
Rattus norvegicus [10] = test: Absorption rate constant in Wistar rat extracellular fluid at 10 mg/kg, sc by HPLC-MS/MS analysis; set-up: dose 10 mg/kg, route subcutaneous; conditions: in vivo
Brain [11] = test: Unbound volume of distribution in Wistar rat brain at 10 mg/kg, sc by HPLC-MS/MS analysis; set-up: dose 10 mg/kg, route subcutaneous; conditions: in vivo
[12] = Ratio of uptake clearance to efflux clearance in Wistar rat brain extracellular fluid at 10 mg/kg, sc by HPLC-MS/MS analysis; set-up: dose 10 mg/kg, route subcutaneous; conditions: in vivo
[13] = Ratio of unbound AUC in extracellular fluid to unbound AUC in plasma of Wistar rat at 10 mg/kg, sc by HPLC-MS/MS analysis; set-up: dose 10 mg/kg, route subcutaneous; conditions: read-out: Ratio AUC
[14] = Ratio of steady state drug level in extracellular fluid to unbound drug level in plasma of Wistar rat at 10 mg/kg, sc by HPLC-MS/MS analysis; set-up: dose 10 mg/kg, route subcutaneous
[15] = Equilibration rate constant in Wistar rat brain extracellular fluid at 10 mg/kg, sc by HPLC-MS/MS analysis; set-up: dose 10 mg/kg, route subcutaneous; conditions: in vivo
[16] = AUC (0 to infinity) in Wistar rat extracellular fluid at 3 mg/kg, sc by HPLC-MS/MS analysis; set-up: time infinity, dose 3 mg/kg, route subcutaneous
[17] = Cmax in Wistar rat extracellular fluid at 3 mg/kg, sc by HPLC-MS/MS analysis; set-up: dose 3 mg/kg, route subcutaneous
[18] = Tmax in Wistar rat extracellular fluid at 3 mg/kg, sc by HPLC-MS/MS analysis; set-up: dose 3 mg/kg, route subcutaneous
Rattus norvegicus [19] = test: Central volume of distribution in Wistar rat extracellular fluid at 3 mg/kg, sc by HPLC-MS/MS analysis; set-up: dose 3 mg/kg, route subcutaneous; conditions: in vivo
[20] = Fraction unbound in Wistar rat plasma at 3 mg/kg, sc by HPLC-MS/MS analysis; set-up: dose 3 mg/kg, route subcutaneous
Plasma [21] = test: Unbound AUC (0 to infinity) in Wistar rat plasma at 3 mg/kg, sc by HPLC-MS/MS analysis; set-up: dose 3 mg/kg, route subcutaneous; conditions: in vivo
Plasma [22] = test: Unbound Cmax in Wistar rat plasma at 3 mg/kg, sc by HPLC-MS/MS analysis; set-up: dose 3 mg/kg, route subcutaneous; conditions: in vivo
[23] = Unbound Tmax in Wistar rat plasma at 3 mg/kg, sc by HPLC-MS/MS analysis; set-up: dose 3 mg/kg, route subcutaneous; conditions: read-out: fTmax (converted)
[24] = Systemic clearance in Wistar rat extracellular fluid at 3 mg/kg, sc by HPLC-MS/MS analysis; set-up: dose 3 mg/kg, route subcutaneous
Rattus norvegicus [25] = test: Absorption rate constant in Wistar rat extracellular fluid at 3 mg/kg, sc by HPLC-MS/MS analysis; set-up: dose 3 mg/kg, route subcutaneous; conditions: in vivo
Brain [26] = test: Unbound volume of distribution in Wistar rat brain at 3 mg/kg, sc by HPLC-MS/MS analysis; set-up: dose 3 mg/kg, route subcutaneous; conditions: in vivo
[27] = Ratio of uptake clearance to efflux clearance in Wistar rat brain extracellular fluid at 3 mg/kg, sc by HPLC-MS/MS analysis; set-up: dose 3 mg/kg, route subcutaneous; conditions: in vivo
[28] = Ratio of unbound AUC in extracellular fluid to unbound AUC in plasma of Wistar rat at 3 mg/kg, sc by HPLC-MS/MS analysis; set-up: dose 3 mg/kg, route subcutaneous; conditions: read-out: Ratio AUC
[29] = Ratio of steady state drug level in extracellular fluid to unbound drug level in plasma of Wistar rat at 3 mg/kg, sc by HPLC-MS/MS analysis; set-up: dose 3 mg/kg, route subcutaneous
[30] = Equilibration rate constant in Wistar rat brain extracellular fluid at 3 mg/kg, sc by HPLC-MS/MS analysis; set-up: dose 3 mg/kg, route subcutaneous; conditions: in vivo
[31] = AUC (0 to infinity) in Wistar rat extracellular fluid at […], sc by HPLC-MS/MS analysis; set-up: dose 1.6 mg/kg, route subcutaneous, time infinity
[32] = Cmax in Wistar rat extracellular fluid at […], sc by HPLC-MS/MS analysis; set-up: dose 1.6 mg/kg, route subcutaneous
[33] = Tmax in Wistar rat extracellular fluid at […], sc by HPLC-MS/MS analysis; set-up: dose 1.6 mg/kg, route subcutaneous
Rattus norvegicus [34] = test: Central volume of distribution in Wistar rat extracellular fluid at […], sc by HPLC-MS/MS analysis; set-up: dose 1.6 mg/kg, route subcutaneous; conditions: in vivo
[35] = Fraction unbound in Wistar rat plasma at […], sc by HPLC-MS/MS analysis; set-up: dose 1.6 mg/kg, route subcutaneous
Plasma [36] = test: Unbound AUC (0 to infinity) in Wistar rat plasma at […], sc by HPLC-MS/MS analysis; set-up: dose 1.6 mg/kg, route subcutaneous; conditions: in vivo
Plasma [37] = test: Unbound Cmax in Wistar rat plasma at […], sc by HPLC-MS/MS analysis; set-up: dose 1.6 mg/kg, route subcutaneous; conditions: in vivo
[38] = Unbound Tmax in Wistar rat plasma at […], sc by HPLC-MS/MS analysis; set-up: dose 1.6 mg/kg, route subcutaneous; conditions: read-out: fTmax (converted)
[39] = Systemic clearance in Wistar rat extracellular fluid at […], sc by HPLC-MS/MS analysis; set-up: dose 1.6 mg/kg, route subcutaneous
Rattus norvegicus [40] = test: Absorption rate constant in Wistar rat extracellular fluid at […], sc by HPLC-MS/MS analysis; set-up: dose 1.6 mg/kg, route subcutaneous; conditions: in vivo
Brain [41] = test: Unbound volume of distribution in Wistar rat brain at […], sc by HPLC-MS/MS analysis; set-up: dose 1.6 mg/kg, route subcutaneous; conditions: in vivo
[42] = Ratio of uptake clearance to efflux clearance in Wistar rat brain extracellular fluid at […], sc by HPLC-MS/MS analysis; set-up: dose 1.6 mg/kg, route subcutaneous; conditions: in vivo
[43] = Ratio of unbound AUC in extracellular fluid to unbound AUC in plasma of Wistar rat at […], sc by HPLC-MS/MS analysis; set-up: dose 1.6 mg/kg, route subcutaneous; conditions: read-out: Ratio AUC
[44] = Ratio of steady state drug level in extracellular fluid to unbound drug level in plasma of Wistar rat at […], sc by HPLC-MS/MS analysis; set-up: dose 1.6 mg/kg, route subcutaneous
[45] = Equilibration rate constant in Wistar rat brain extracellular fluid at […], sc by HPLC-MS/MS analysis; set-up: dose 1.6 mg/kg, route subcutaneous; conditions: in vivo
[46] = AUC (0 to infinity) in rat; set-up: time infinity; conditions: plasma

SMILES: Clc1ccc2c(c1)N=C(N1CCNCC1)c1ccccc1N2 [N-DESMETHYLCLOZAPINE]
- AUC(0-inf) [1]: 0.0134 µM·h
- Cmax [2]: 2 nM
- Tmax [3]: 4.63 h
- Vd (Rattus norvegicus [4]): 607 L/kg
- fraction unbound [5]: 0.11
- fAUC (Plasma [6]): 32296 nM·min
- fCmax (Plasma [7]): 90 nM
- Tmax [8]: 1.05 h
- CL/F [9]: 1600 mL/min/kg
- ka (Rattus norvegicus [10]): 0.5 min⁻¹
- Vdu (Brain [11]): 82 mL/g
- Ratio [12]: 0.05
- Kp uu [13]: 0.03
- Kp uu [14]: 0.04
- Ke [15]: 0.006 min⁻¹

SMILES: Cc1nc2n(c(=O)c1CCN1CCC(c3noc4cc(F)ccc34)CC1)CCCC2 [RISPERIDONE]
- AUC(0-inf) [16]: 0.0591 µM·h
- Cmax [17]: 20 nM
- Tmax [18]: 1.25 h
- Vd (Rattus norvegicus [19]): 21 L/kg
- fraction unbound [20]: 0.16
- fAUC (Plasma [21]): 24022 nM·min
- fCmax (Plasma [22]): 181 nM
- Tmax [23]: 0.883 h
- CL/F [24]: 307 mL/min/kg
- ka (Rattus norvegicus [25]): 0.03 min⁻¹
- Vdu (Brain [26]): 10 mL/g
- Ratio [27]: 0.14
- Kp uu [28]: 0.15
- Kp uu [29]: 0.21
- Ke [30]: 0.006 min⁻¹

SMILES: CN(C)CCC[C@@]1(c2ccc(F)cc2)OCc2cc(C#N)ccc21 [ESCITALOPRAM]
- AUC(0-inf) [31]: 0.197 µM·h
- Cmax [32]: 62 nM
- Tmax [33]: 2 h
- Vd (Rattus norvegicus [34]): 4.1 L/kg
- fraction unbound [35]: 0.5
- fAUC (Plasma [36]): 13888 nM·min
- fCmax (Plasma [37]): 131 nM
- Tmax [38]: 0.433 h
- CL/F [39]: 277 mL/min/kg
- ka (Rattus norvegicus [40]): 0.02 min⁻¹
- Vdu (Brain [41]): 18 mL/g
- Ratio [42]: 1.24
- Kp uu [43]: 0.86
- Kp uu [44]: 1.06
- Ke [45]: 0.015 min⁻¹

SMILES: CN1CCN(C2=Nc3cc(Cl)ccc3Nc3ccccc32)CC1 [CLOZAPINE]
- AUC(0-inf) [1]: 0.0443 µM·h
- Cmax [2]: 6 nM
- Tmax [3]: 4 h
- AUC(0-inf) [46]: 5.39 µM·h
- fraction unbound [5]: 0.061
- fAUC (Plasma [6]): 19732 nM·min
- fCmax (Plasma [7]): 77 nM
- Tmax [8]: 1 h
- Vdu (Brain [11]): 70 mL/g
- Kp uu [13]: 0.15
- Kp uu [14]: 0.13
